Reference: patent US6541503B2, “Substituted oxindole derivatives as protein tyrosine kinase and as protein serine/threonine kinase inhibitors” (SmithKline Beecham Corporation, priority 1997, dated 2003)
Read-outs that look alike come from different tables or passages of the source.

Experiments:
[1] = system: RKO colon adenocarcinoma cells; test: MTT assay, RKO; type: cell-based, human; conditions: 72 h, read-out: MTT RKO IC50
Experimental: (§1) Compounds are tested for their ability to inhibit cell proliferation and cell viability. The metabolic conversion of 3-(4,5-dimethylthiazol-2-yl)-2,5-diphenyltetrazolium bromide (MTT, Sigma #M2128) to a reduced form is a commonly used measure of cellular viability. Following is the procedure:
(§2) Cells are maintained in 75 cm^2 tissue culture flasks until ready for use. The cells are grown and plated for the assay in Dulbecco's modified Eagle's media (DMEM) containing 10% fetal bovine serum. For example, the following cell lines can be used: a) human foreskin fibroblasts (HFF); b) HT29 (human colon carcinoma cell line); c)MDA-MB-468 (human breast carcinoma cell line); d) RKO (human colon adenocarcinoma cell line); e) SW620 (human colon carcinoma cell line); f) A549 (human lung carcinoma cell line); and g) MIA PACA (human pancreatic carcinoma cell line). Cells are maintained at 37° C. in 10% CO2, 90% humidified air. Cells are plated in 96-well tissue culture plates at the densities listed below. 100 μL of cell suspension is added to each well of the 96-well plate except the top row of the plate which contains no cells and serves as a reference for the spectrophotometer.
(§3) Cells are incubated overnight in DMEM containing 10% fetal bovine serum at 37° C. in 10% CO2, 90% humidified air prior to dosing. […] Compounds with solubilities of less than 30 μM are dosed at the highest soluble concentration. Stock solutions of compounds are made in 100% dimethyl sulfoxide (DMSO). Stock solutions are diluted in DMEM containing 100 μg/ml gentamicin and 0.3 to 0.6% DMSO at the twice the highest concentration to be placed on the cells. If compounds have been dissolved in DMSO the final concentration of DMSO on the cells is kept below 0.3%. Three-fold serial dilutions are performed on each compound to prepare 10 concentrations of the compound for dosing. 100 μl of diluted compound is added to the 100 μl of media currently on the dish. For each concentration of compound, 2-4 replicate wells are prepared.
(§4) Cells are returned to incubator and allowed to proliferate in the presence of compound for 72 h before addition of MTT. MTT is prepared in phosphate buffered saline (Irvine Scientific #9240) at a concentration of 2 mg/ml. 50 μl per well of MTT solution is added to the 200 μl of media to yield a final concentration of 0.4 mg/ml and plates are returned to the incubator for 4 h. After 4 h incubation the media, compound and MTT mixture is aspirated from the plates and 100 μl of 100% DMSO is added to each well in addition to 25 μl of Sorenson's Buffer (0.1M glycine, 0.1M NaCl, pH 10.5). Quantitation of metabolic reduction of MTT in each plate is performed by reading optical density at 570 nm wavelength on a Molecular Devices UVmax microplate reader. Growth inhibition curves and 50% inhibitory concentrations are determined using Microsoft Excel.
(§5) HDF are normal diploid fibroblast cells. RKO are colon adenocarcinoma cells and MES/SA are […].

MDA MB468 = test: MTT assay, MDA MB468; type: cell-based, human; conditions: read-out: MTT MDA MB468 IC50
Experimental: as §1, §2, §3, §4

[2] = system: HDF normal diploid fibroblast cells; test: MTT assay, HDF; type: cell-based, human; conditions: 72 h; read-out: MTT HDF IC50
Experimental: as §1
as §2, with “100 μL of cell suspension is added to each well of the 96-well plate except the top row of the plate which contains no cells and serves as a reference for the spectrophotometer.” left out
Cells are returned to incubator and allowed to proliferate in the presence of compound for 72 h before addition of MTT. […] Quantitation of metabolic reduction of MTT in each plate is performed by reading optical density at 570 nm wavelength on a Molecular Devices UVmax microplate reader. Growth inhibition curves and 50% inhibitory concentrations are determined using Microsoft Excel. […]

[3] = system: RKO colon adenocarcinoma cells; test: FACS assay (cell death by flow cytometry), RKO; type: cell-based, human; conditions: 50% cell death, 72 h, read-out: FACS RKO IC50
Experimental: (§6) These assays allow determination of both cell death and changes in cell cycle profile in cells following treatment of the compound. The assay is performend as follows:
(§7) 1. Cells are incubated in DMEM to which 10% FCS has been added in a humidified incubator at 37° C. and 5% by volume of CO2 in air. The cells are innoculated in 6-well plates at a density of 0.5-5×10^5 cells per well.
(§8) 2. The test compound is added in serial dilutions 24-36 h after plating in 0.5% DMSO. The plates are then incubated a further 72 h in the presence of the compound. During this time, cells in control cultures undergo at least three cell divisions.
(§9) 3. After incubation, the media is collected and cells are harvested by trypsinization. The cells and media are pooled and pelleted by centrifugation.
(§10) 4. The cell pellet is fixed in a final volume of 3 mL of 50% ice cold MeOH and incubated for a minimum of 30 min at −20° C.
(§11) 5. The cells are pelleted by centrifugation and resuspended in 0.5 mL PBS containing 1%FCS, […] Propidium Iodide (PI) and 5 mg/mL RNase A and incubated 30 min at 37° C. in the dark.
(§12) 6. The samples are analysed by flow cytometry using the relative incorporation of PI as a measure of DNA content of each cell. The % Dead cells is recorded as % of events with less than 2N DNA.
as §5

[4] = system: human diploid fibroblasts (HDF-3); test: G1-S progression assay (BrdU incorporation); type: cell-based; conditions: read-out: G1/S Chkpt IC50
Experimental: This assay is designed to determine the ability of compounds to inhibit progression of cells from G1 into S-phase. […] The protocol is as follows:
(1) Grow human diploid fibroblasts (HDF-3) in 100 mm tissue culture dish to confluency. (2) Plate 6-7×10^3 cells/well in a 96 well plate in 100 μl of DMEM. (3) After 16-17 h add various dilutions of test compounds (0.045-100 μM). Dilute compound in DMEM containing DMSO and add 100 μl to each well so that the DMSO conc. is 0.6-0.8% in 200 μl final volume. (4) Two h after addition of compound, add 20 ul of 100 μM BrdU (final conc. 10 μM) Make 100 μM solution in DMEM from 10 mM stock solution. (5) After 4 h, add 200 μl PBS to each well and remove the contents of the wells by inverting the plate and soaking on to the paper towel. Repeat the washing step three times, with 400 ul PBS each time. (6) Fix the cells and denature the DNA by adding 200 μl fixation/denaturation solution to each well for 30-40 min. (7) Remove the fixation/denaturation solution by tapping the plate on the paper towel and add 75 ul of anti BrdU peroxidase antibody to each well. (dilute the antibody to 0.1 U/mL from 15 U/mL stock in PBS containing 1% BSA, Fraction V). Incubate the plate O/N at 4° C. (8) Remove the antibody solution and wash wells four times with 400 μl of PBS. Let the wash solution stay for 3-4 min during each wash. (9) Drain the wells and add 100 μl of chemiluminiscence Elisa reagent (Prepare the reagent 15-20 min before use to bring it to rt by mixing 100 parts of reagent A with 1 part of reagent B). (10) Read the plate in a luminometer. Take 2-3 readings within 6-7 min. Perform the following controls:
Deoxybromouridine (BrdU), anti BrdU peroxidase antibodies, fixation/denaturation solution, chemiluminiscence reagent and BSA Fraction V, were obtained from Boehringer Mannheim. The 96-well white plate with clear bottom were purchased from Corning Costar Corporation. Dulbecco's Modified Eagle Medium containing high glucose, L-glutamine and pyridoxine HCl was obtained from GIBCO BRL.

[5] = system: MES/SA ovarian carcinoma cells; test: FACS assay (cell death by flow cytometry), MES/SA; type: cell-based; conditions: 50% cell death, 72 h, read-out: FACS MES/SA IC50
Experimental: as §6, §7, §8, §9, §10, §11, §12, §5

[6] = system: HDF normal diploid fibroblast cells; test: FACS assay (cell death by flow cytometry), HDF; type: cell-based, human; conditions: 50% cell death, 72 h; read-out: FACS HDF IC50
Experimental: as §6, §7, §8, §9, §10, §11, §12, §5

CDK2 = CDK2 (Homo sapiens, UniProt P24941); test: Cyclin dependent protein kinase substrate phosphorylation assay, CDK2; type: biochemical
CDK1 = CDK1 (Homo sapiens, UniProt P06493); test: Cyclin dependent protein kinase substrate phosphorylation assay, CDK1; type: biochemical; conditions: read-out: CDK1 IC50
Experimental: Cyclin dependent protein kinase assays utilized the peptides Biotin-aminohexyl-[…] and Biotin-aminohexyl-[…]-NH2 as phosphoryl group acceptors. CDK1 and CDK2 were both expressed utilizing a baculovirus expression system and were partially purified to comprise 20-80% of total protein, with no detectable competing reactions present. Typically, assays were performed by incubating either enzyme (0.2-10 nM), with and without inhibitor, one of the two peptide substrates ([…]), [γ-^32P]ATP ([…]), and 10-20 mM Mg^2+ for periods of time generally within the range 10-120 min. Reactions were terminated with 0.2-2 volumes of either 20% acetic acid or 50-100 mM EDTA buffered to pH 7 (substrate consumption<20%). The buffer employed in enzyme assays was either 30 mM HEPES 7.4 containing 0.15 M NaCl and 5% DMSO, the buffer 50 mM MOPS 7.0 containing 0.15 M NaCl and 5% DMSO, or the buffer 100 mM HEPES pH 7.5 containing 0.1 mg /mL BSA and 5% DMSO. Inhibitors were diluted in 100% DMSO prior to addition into the assay. Detection of peptide phosphorylation was accomplished by scintillation counting following either collection of peptide onto phosphocellulose filters (for reactions stopped with acetic acid), collection of peptide in wells of 96 well plates coated with Streptavidin (Pierce) (reactions were stopped with EDTA), or addition of Avidin coated Scintillant impregnated beads (Scintillation Proximity Assays from Amersham, reactions were stopped with EDTA).

Sequence of CDK1 (P06493 whole entry, species assumed): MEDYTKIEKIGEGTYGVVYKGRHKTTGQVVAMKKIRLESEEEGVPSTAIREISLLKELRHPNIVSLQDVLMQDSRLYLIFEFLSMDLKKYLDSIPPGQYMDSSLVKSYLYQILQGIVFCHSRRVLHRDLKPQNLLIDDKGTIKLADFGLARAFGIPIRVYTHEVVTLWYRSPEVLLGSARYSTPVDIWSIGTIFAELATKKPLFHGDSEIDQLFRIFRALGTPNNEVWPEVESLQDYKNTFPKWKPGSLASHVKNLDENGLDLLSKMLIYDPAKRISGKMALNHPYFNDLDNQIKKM
Sequence of CDK1 (P14635 whole entry partner, species assumed): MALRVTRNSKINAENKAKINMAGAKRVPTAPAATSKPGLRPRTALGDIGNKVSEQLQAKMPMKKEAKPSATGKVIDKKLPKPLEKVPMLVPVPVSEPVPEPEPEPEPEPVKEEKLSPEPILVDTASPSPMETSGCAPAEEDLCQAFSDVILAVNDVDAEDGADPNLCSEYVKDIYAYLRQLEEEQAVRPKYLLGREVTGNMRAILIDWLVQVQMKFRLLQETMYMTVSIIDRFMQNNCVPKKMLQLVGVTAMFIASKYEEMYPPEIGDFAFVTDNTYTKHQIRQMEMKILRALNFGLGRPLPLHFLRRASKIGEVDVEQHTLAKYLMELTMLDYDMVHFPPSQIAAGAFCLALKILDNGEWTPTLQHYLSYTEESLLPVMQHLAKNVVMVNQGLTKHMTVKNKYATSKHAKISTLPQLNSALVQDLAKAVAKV

Row | Structure (SMILES) | IC50 (CDK1) | IC50 (CDK2) | IC50 ([3]; Homo sapiens) | IC50 ([1]; Homo sapiens) | IC50 (MDA MB468; Homo sapiens, MDA-MB-468, 72 h) | further results
1 | NS(=O)(=O)c1ccc(NN=C2C(=O)Nc3ccc(-c4cnco4)cc32)cc1 [Example 36, 4-[1-(5-Oxazol-5-yl-2-oxo-1,2-dihydro-indol-3-ylidene)-hydrazino]-benzenesulfonamide] | – | – | – | – | – | IC50 [1]: 600 to 1000 nM; IC50 (MDA MB468; 72 h): 600 to 1000 nM; IC50 [2]: 1100 to 5000 nM; IC50 [3]: 600 to 1000 nM; IC50 [4]: 600 to 1000 nM; IC50 [5]: 100 to 500 nM; IC50 [6]: > 5000 nM
2 | CCC(C)Cc1cccc2c1C(=NNc1ccc(S(N)(=O)=O)cc1)C(=O)N2 (centres unmarked) [Example 11, 4-{N′-[4-(2-methylbutyl)-2-oxo-1,2-dihydro-indol-3-ylidene]-hydrazino}-benzenesulfonamide] | 11 to 50 nM | 1 to 10 nM | 1100 to 5000 nM | – | – | IC50 ([4]; Homo sapiens, Fibroblast): 1100 to 5000 nM
3 | CN(C)S(=O)(=O)c1ccc(NC=C2C(=O)Nc3ccc(-c4cnco4)cc32)cc1 [Example 35, N,N-Dimethyl-4-[(5-oxazol-5-yl-2-oxo-1,2-dihydro-indol-3-ylidenemethyl)-amino]-benzenesulfonamide] | 11 to 50 nM | 1 to 10 nM | 1100 to 5000 nM | 1100 to 5000 nM | > 5000 nM | IC50 ([5]; Homo sapiens, MES-SA): > 5000 nM

Second part, led by results:

Row | IC50 (CDK1) | Structure (SMILES) | IC50 (CDK2) | IC50 ([3]; Homo sapiens) | IC50 ([1]; Homo sapiens) | IC50 (MDA MB468; Homo sapiens, MDA-MB-468, 72 h) | further results
4 | 11 to 50 nM | COC(=O)c1ccc2c(c1)/C(=C/Nc1ccc(S(N)(=O)=O)cc1)C(=O)N2 [Example 27, 2-Oxo-3-(4-sulfamoyl-phenylamino-methylene)-2,3-dihydro-1H-indole-5-carboxylic acid methyl ester] | – | – | – | – | –
5 | 11 to 50 nM | CC(C)COC(=O)c1ccc2c(c1)C(=CNc1ccc(S(N)(=O)=O)cc1)C(=O)N2 [Example 103, 2-Oxo-3-(4-sulfamoyl-phenylamino-methylene)-2,3dihydro-1H-indole-5-carboxylic acid isobutyl ester] | 1 to 10 nM | – | 1100 to 5000 nM | 1100 to 5000 nM | –
6 | 51 to 100 nM | O=C1Nc2ccc3ncsc3c2C1=CNc1ccc2nn[nH]c2c1 [Example 101, 8-(3H-Benzotriazol-5-ylaminomethylene)-6,8-dihydro-1-thia-3,6-diaza-as-indacene-7-one] | 11 to 50 nM | > 5000 nM | – | 1100 to 5000 nM | –
